Data taken from patent publication US8372967B2, “Compounds and methods for modulating expression of GCCR” (Isis Pharmaceuticals, Inc., priority 2006, dated 2013).
Strand notation (5' to 3'): a small letter for the sugar, then the base; units joined by * are phosphorothioate-linked, units joined directly phosphodiester-linked; [ ] holds rarer units or linkages, { } end groups; capitals alone tell only the bases. e = 2'-O-(2-methoxyethyl) (MOE); [5mC] = 5-methylcytosine; d = 2'-deoxy (DNA)

Assays:
[1] = tested on: DGAT2 mRNA; assay: Antisense inhibition of DGAT2 in A10 cells, 75 nM (Table 81); assay type: cell-based, rat; conditions: approximately 24 hours
Procedure: Short antisense compounds targeted to a DGAT2 nucleic acid were tested for their effects on DGAT2 mRNA in vitro. Cultured A10 cells in a 96-well plate were treated with 75 nM of short antisense compound. After a treatment period of approximately 24 hours, RNA was isolated from the cells and DGAT2 mRNA levels were measured by quantitative real-time PCR, as described herein. DGAT2 mRNA levels were adjusted according to total RNA content as measured by RIBOGREEN®. Results are presented as percent inhibition of DGAT2, relative to untreated control cells in Table 81.

[2] = tested on: rat DGAT2 mRNA; assay: Dose-dependent inhibition of DGAT2 in A10 cells (Tables 82, 83); assay type: cell-based
Procedure: Additional short antisense compounds targeted to DGAT2 mRNA were tested in vitro in a dose-response experiment. A10 cells were prepared as described above and treated with 6.25, 12.5, 25.0, 50.0, 100.0, and 200.0 nM short antisense compounds to determine if DGAT2 inhibition occurs in a dose-dependent manner. […] Results are presented as percent inhibition, relative to untreated control cells.
Additional short antisense compounds targeted to DGAT2 mRNA were tested in vitro. A10 cells were prepared as described above and treated with 0.62, 1.85, 5.56, 16.67, 50.0, and 150.0 nM short antisense compounds to determine if DGAT2 inhibition occurs in a dose-dependent manner. DGAT2 mRNA was measured using quantitative real-time PCR, as described herein. […] Results are presented as percent inhibition of rat DGAT2, relative to untreated control cells.

Q: Which “% Control” value [1] does the source give for “372508 (antisense eA*eG*eT*dT*d[5mC]*d[5mC]*dT*dG*dG*dT*dG*dG*dT*e[5mC]*eA*eG) [compound 372508]” here?
A: 35 % Control

Q: And the “percent inhibition of rat DGAT2” value ([2]; 0.62 nM (Table 83))?
A: 0%

Q: What about the “percent inhibition of rat DGAT2” value ([2]; 1.85 nM (Table 83)) of the same substance?
A: 0%

Q: And the “percent inhibition of rat DGAT2” value ([2]; 5.56 nM (Table 83))?
A: 6%

Q: And the “percent inhibition of rat DGAT2” value ([2]; 16.67 nM (Table 83))?
A: 14%

Q: What about the “percent inhibition of rat DGAT2” value ([2]; 50 nM (Table 83)) of the same substance?
A: 39%

Q: What about the “percent inhibition of rat DGAT2” value ([2]; 150 nM (Table 83)) of the same substance?
A: 71%

Q: Which “% Control” value [1] does the source give for “372516 (antisense eT*eA*e[5mC]*dA*dG*dA*dA*dG*dG*d[5mC]*dA*d[5mC]*d[5mC]*e[5mC]*eA*eG) [compound 372516]” here?
A: 27 % Control

Q: What about the “percent inhibition of rat DGAT2” value ([2]; 0.62 nM (Table 83)) of the same substance?
A: 1%

Q: And the “percent inhibition of rat DGAT2” value ([2]; 1.85 nM (Table 83))?
A: 10%

Q: And the “percent inhibition of rat DGAT2” value ([2]; 5.56 nM (Table 83))?
A: 0%

Q: What about the “percent inhibition of rat DGAT2” value ([2]; 16.67 nM (Table 83)) of the same substance?
A: 4%

Q: What about the “percent inhibition of rat DGAT2” value ([2]; 50 nM (Table 83)) of the same substance?
A: 35%

Q: What about the “percent inhibition of rat DGAT2” value ([2]; 150 nM (Table 83)) of the same substance?
A: 81%

Q: Which results are given for “372524 (antisense eG*e[5mC]*e[5mC]*dA*dG*dG*d[5mC]*dA*dT*dG*dG*dA*dG*e[5mC]*eT*e[5mC]) [compound 372524]”?
A: % Control [1]: 21 % Control; percent inhibition of rat DGAT2 ([2]; 0.62 nM (Table 83)): 7%; percent inhibition of rat DGAT2 ([2]; 1.85 nM (Table 83)): 0%; percent inhibition of rat DGAT2 ([2]; 5.56 nM (Table 83)): 5%; percent inhibition of rat DGAT2 ([2]; 16.67 nM (Table 83)): 30%; percent inhibition of rat DGAT2 ([2]; 50 nM (Table 83)): 68%; percent inhibition of rat DGAT2 ([2]; 150 nM (Table 83)): 91%

Q: Which “% Control” value [1] does the source give for “372530 (antisense eT*e[5mC]*eG*dG*d[5mC]*d[5mC]*d[5mC]*d[5mC]*dA*dG*dG*dA*dG*e[5mC]*e[5mC]*e[5mC]) [compound 372530]” here?
A: 35 % Control

Q: And the “percent inhibition of rat DGAT2” value ([2]; 0.62 nM (Table 83))?
A: 0%

Q: What about the “percent inhibition of rat DGAT2” value ([2]; 1.85 nM (Table 83)) of the same substance?
A: 2%

Q: And the “percent inhibition of rat DGAT2” value ([2]; 5.56 nM (Table 83))?
A: 0%

Q: What about the “percent inhibition of rat DGAT2” value ([2]; 16.67 nM (Table 83)) of the same substance?
A: 10%

Q: What about the “percent inhibition of rat DGAT2” value ([2]; 50 nM (Table 83)) of the same substance?
A: 38%

Q: And the “percent inhibition of rat DGAT2” value ([2]; 150 nM (Table 83))?
A: 78%

Q: What does the source list for “372546 (antisense eT*eT*eG*dG*dT*d[5mC]*dT*dT*dG*dT*dG*dA*dT*eT*eG*eT) [compound 372546]”?
A: % Control [1]: 34 % Control; percent inhibition of rat DGAT2 ([2]; 0.62 nM (Table 83)): 0%; percent inhibition of rat DGAT2 ([2]; 1.85 nM (Table 83)): 2%; percent inhibition of rat DGAT2 ([2]; 5.56 nM (Table 83)): 11%; percent inhibition of rat DGAT2 ([2]; 16.67 nM (Table 83)): 4%; percent inhibition of rat DGAT2 ([2]; 50 nM (Table 83)): 48%; percent inhibition of rat DGAT2 ([2]; 150 nM (Table 83)): 78%

Q: How did the “% Control” value [1] turn out when “372563 (antisense eA*eG*d[5mC]*d[5mC]*dA*dG*dG*dT*dG*dA*d[5mC]*dA*eG*eA) [compound 372563]” was run?
A: 48 % Control

Q: And the “percent inhibition of rat DGAT2” value ([2]; 0.62 nM (Table 83))?
A: 0%

Q: And the “percent inhibition of rat DGAT2” value ([2]; 1.85 nM (Table 83))?
A: 0%

Q: And the “percent inhibition of rat DGAT2” value ([2]; 5.56 nM (Table 83))?
A: 0%

Q: What about the “percent inhibition of rat DGAT2” value ([2]; 16.67 nM (Table 83)) of the same substance?
A: 1%

Q: And the “percent inhibition of rat DGAT2” value ([2]; 50 nM (Table 83))?
A: 4%

Q: And the “percent inhibition of rat DGAT2” value ([2]; 150 nM (Table 83))?
A: 46%

Q: What does the source list for “372578 (antisense eT*eG*dT*dG*dT*d[5mC]*dT*dT*d[5mC]*dA*d[5mC]*d[5mC]*eA*eG) [compound 372578]”?
A: % Control [1]: 59 % Control; percent inhibition of rat DGAT2 ([2]; 0.62 nM (Table 83)): 0%; percent inhibition of rat DGAT2 ([2]; 1.85 nM (Table 83)): 0%; percent inhibition of rat DGAT2 ([2]; 5.56 nM (Table 83)): 0%; percent inhibition of rat DGAT2 ([2]; 16.67 nM (Table 83)): 2%; percent inhibition of rat DGAT2 ([2]; 50 nM (Table 83)): 7%; percent inhibition of rat DGAT2 ([2]; 150 nM (Table 83)): 42%

Q: Which results are given for “372580 (antisense eG*eG*dT*dT*dG*dT*dG*dT*dG*dT*d[5mC]*dT*eT*e[5mC]) [compound 372580]”?
A: % Control [1]: 48 % Control; percent inhibition of rat DGAT2 ([2]; 0.62 nM (Table 83)): 0%; percent inhibition of rat DGAT2 ([2]; 1.85 nM (Table 83)): 5%; percent inhibition of rat DGAT2 ([2]; 5.56 nM (Table 83)): 5%; percent inhibition of rat DGAT2 ([2]; 16.67 nM (Table 83)): 3%; percent inhibition of rat DGAT2 ([2]; 50 nM (Table 83)): 16%; percent inhibition of rat DGAT2 ([2]; 150 nM (Table 83)): 42%
